The values below come from patent US20240342127A1, “METHODS OF TREATING COPPER METABOLISM-ASSOCIATED DISEASES OR DISORDERS” (Alexion Pharmaceuticals, Inc., priority 2021, published 2024).

One data set concerns participants with WD. How it is done: Incremental dose increases are permitted, but not required, up to a maximum of 60 mg/day.
In summary, the maximum daily dose permitted in this study (Study 302) has been set as […].

The conditions of data set [1]: compared with other treatments; cited from earlier work.
Another data set relates to patients with WD. The settings on record: cited from earlier work.
For data set [2] the following is noted: in vivo.

As to Bis-choline tetrathiomolybdate [BC-TTM], in the data set on participants with WD (48-week Primary Evaluation Period, overall mean daily dose 15.6 mg), the “copper mobilization from tissue to blood compared with SoC, as measured by daily mean dNCC AUEC0-48 weeks” value was “approximately 3 fold”. The “participants with Grade 2 ALT elevations during treatment” value in the data set with participants with WD (in vivo) was “approximately 15%”. Further, the “binding affinity to copper” value in data set [1] is on record as “greater binding affinity to copper compared with other treatments”. In addition, the “reduction of mean serum non-ceruloplasmin-bound Cu (NCC) compared with baseline” value in the data set on patients with WD (Week 24, 28 patients with WD, monotherapy) is on record as 72%. In addition, in the data set with patients with WD (human, in vivo), the “most frequently reported drug-related AEs” value was “changes in hematological parameters, fatigue, sulphur eructations, and other gastrointestinal symptoms”; the “paradoxical neurological worsening upon treatment initiation” value is “No paradoxical neurological worsening was observed”; the “patients with reversible liver function test elevations” value is listed as 39%; the “severity of most reported adverse events” value was “mild (Grade 1) to moderate (Grade 2)”. Moreover, the tolerability of treatment entry with patients with WD (human, in vivo) is reported as “generally well-tolerated”. The “effect of age, sex or body weight on PK” value in data set [2] is “not significant covariates”.
